Data taken from patent US20230158084A1, “PROBIOTICS, METABOLITES, AND USES THEREOF” (California Institute of Technology, priority 2018, published 2023).
Entries after “also recorded” stand apart in the source; their conditions may differ.

Tests used:
Type in all cases: in vivo, mouse
BTBR mice [1] = test: ASD-related behaviors overall (marble burying, direct social interaction, open field) in BTBR mice; conditions: for ASD-related behaviors, administration post weaning: BTBR mice, 10 mM in drinking water to juvenile mice starting 3-4 weeks of age through adulthood; for ASD-related behaviors / symptoms, prenatal administration: BTBR mouse model, 10 mM orally in drinking water from before mating (conception) through adulthood
Protocol: FIGS. 5A-D are a series of drawings illustrating that differential metabolites impact ASD-relevant behaviors in SPF mice in accordance with some embodiments herein. FIG. 5A: The abundance of select metabolites in the offspring microbiome is correlated with behavior of male offspring. Spearman correlation between the microbiome and mouse behavior, by donor (See FIGS. 1A-0). […] Color scale denotes Spearman ρ. […] Groups of mice were orally administered 10 mM Taurine or 5AV in drinking water before mating, and throughout their lifetime. Offspring were tested by marble burying, direct social interaction, and open field tests, and compared to untreated vehicle controls. Results are aggregated from 2 independent experiments. NControl=42, […]=52, NTaurine=36. Bar plots denote mean and S.E.M. Hypothesis on differences in means were tested by ANOVA on trimmed means (10%) and subsequent posthoc tests. FIGS. 5E-L: qPCR of BTBR brains after 5AV and taurine administration. Results are aggregated from 2 independent experiments. Hypothesis on differences in means were tested by ANOVA on trimmed means (10%) and subsequent posthoc tests. FIGS. 5M-V: series of graphs illustrating E18 B6 feeding 5AV and Taurine targeted metabolomics. […] In FIGS. 9A-K, mice were orally administered 10 mM Taurine or 5AV in drinking water starting 3-4 weeks of age mating, and throughout their lifetime. Offspring were tested by marble burying, direct social interaction, and open field tests, and compared to untreated vehicle controls. Results are aggregated from 2 independent experiments. NControl=20, […]=18, NTaurine=20. Bar plots denote mean and S.E.M. hypothesis on differences means were tested by ANOVA on trimmed means (10%) and subsequent posthoc tests. FIGS. 9L-Q illustrate basal properties of L5 pyramidal neurons in the mPFC. […] Taurine was orally administered to BTBR mice, a validated mouse model for ASD (McFarlane et al., 2008), from conception through adulthood to capture both prenatal and postnatal neurodevelopmental periods. […] It is will appreciated that the blood-brain barrier comprises endothelial cells, and selectively permits the movement of substances between circulating blood and the brain, for example permitting some molecules to pass from the blood to the brain, while preventing other molecules from passing from the blood to the brain. As such, it will be appreciated that at a given stage of development, some molecules may readily pass through the blood brain barrier, while others may not.

[2] = system: pyramidal neurons in the L5 of the mPFC; test: Electrophysiology in acute slices from treated BTBR mice (mEPSC, mIPSC, excitability); conditions: BTBR mice given 10 mM in drinking water starting 3-4 weeks of age
Protocol: FIGS. 8A-E are a series of graphs illustrating effects of microbial metabolites on brain activity of mice in accordance with some embodiments herein. Mice were orally administered 10 mM Taurine or 5AV in drinking water starting 3-4 weeks of age mating, and throughout their lifetime. FIG. 8A illustrates effects on amplitude and frequency of mEPSCs in pyramidal neurons in the L5 of the mPFC in acute slices from BTBR mice treated with 5AV, Taurine, or control. FIG. 8B illustrates effects on amplitude and frequency of mIPSCs in pyramidal neurons in the L5 of the mPFC in acute slices from BTBR mice treated with 5AV, Taurine, or control. Hypotheses for FIGS. 8A-B were tested by ANOVA on trimmed means (10%) and subsequent post-hoc tests. FIG. 8C illustrates effects on excitability of pyramidal neurons in the L5 of the mPFC in acute slices from BTBR mice treated with 5AV, Taurine, or control in response to step-wise injection current, as measured by the number of action potential spikes. 2-way ANOVA. BTBR mice were orally administered 10 mM Taurine or 5AV in drinking water starting 3-4 weeks of age mating, and throughout their lifetime, and effects on the brain were observed. FIG. 8A illustrates effects on amplitude and frequency of mEPSCs in pyramidal neurons in the L5 of the mPFC in acute slices from BTBR mice treated with 5AV, Taurine, or control. FIG. 8B illustrates effects on amplitude and frequency of mIPSCs in pyramidal neurons in the L5 of the mPFC in acute slices from BTBR mice treated with 5AV, Taurine, or control. Hypotheses for FIGS. 8A-B were tested by ANOVA on trimmed means (10%) and subsequent post-hoc tests. FIG. 8C illustrates effects on excitability of pyramidal neurons in the L5 of the mPFC in acute slices from BTBR mice treated with 5AV, Taurine, or control in response to step-wise injection current, as measured by the number of action potential spikes. 2-way ANOVA.

BTBR mice [3] = test: Open field testing (OFT), BTBR mice given metabolites; conditions: BTBR offspring; 10 mM in drinking water before mating and throughout lifetime (prenatal administration); vs untreated vehicle controls
Protocol: FIGS. 5A-D are a series of drawings illustrating that differential metabolites impact ASD-relevant behaviors in SPF mice in accordance with some embodiments herein. FIG. 5A: The abundance of select metabolites in the offspring microbiome is correlated with behavior of male offspring. Spearman correlation between the microbiome and mouse behavior, by donor (See FIGS. 1A-0). […] Color scale denotes Spearman ρ. […] Groups of mice were orally administered 10 mM Taurine or 5AV in drinking water before mating, and throughout their lifetime. Offspring were tested by marble burying, direct social interaction, and open field tests, and compared to untreated vehicle controls. Results are aggregated from 2 independent experiments. NControl=42, […]=52, NTaurine=36. […] Open field testing (OFT)-OFT, as a measure for locomotion and anxiety, was performed in 50×50 cm^2 white plexiglas arenas, recorded using an overhead camera, and tracked and analyzed using the EthoVision XT 10 software package (Noldus Information Technology). […] The distance traveled, as well as the number of entries and time spend in a 30×30 cm^2 center square, were analyzed by the EthoVision software. […] As such, it will be appreciated that at a given stage of development, some molecules may readily pass through the blood brain barrier, while others may not.

Row | SMILES | ASD-related behaviors, administration post weaning (BTBR mice [1]) | ASD-related behaviors / symptoms, prenatal administration (BTBR mice [1]) | mEPSC amplitude [2] | other effects on neuron activity (mIPSCs, excitability; FIGS. 8B-E) [2] | anxiety, as measured by center duration in the OFT (BTBR mice [3]) | ASD-related behaviors, administration post weaning (BTBR mice [1]; listed as Taurine) | ASD-related behaviors / symptoms, prenatal administration (BTBR mice [1]; listed as Taurine)
1 | NCCCCC(=O)O [5AV, 5-Aminovaleric acid] | did not rescue behavioral alterations; also recorded: no effects on ASD-related behaviors; also recorded: did not have these effects | significant improvement in ASD-related behaviors; also recorded: ameliorate ASD-related behavioral deficits; also recorded: reduces and/or prevents symptoms of ASD | induced a decrease in mEPSC amplitude, it was not statistically significant | not otherwise observed |  |  | 
2 | NCCS(=O)(=O)O [taurine] | did not rescue behavioral alterations; also recorded: did not have these effects | significant improvement in ASD-related behaviors; also recorded: reduces and/or prevents symptoms of ASD |  | not otherwise observed | reduces anxiety | no effects on ASD-related behaviors | ameliorate ASD-related behavioral deficits
